Results taken from ChEMBL document CHEMBL1157375, “Prospective randomized trial of empiric therapy with trimethoprim-sulfamethoxazole or doxycycline for outpatient skin and soft tissue infections in an area of high prevalence of methicillin-resistant Staphylococcus aureus” (2007).
Active and inactive are the calls of the source. No cut-off for these calls is given here.

Test system: Staphylococcus aureus
Experiment: Antimicrobial activity against methicillin-resistant Staphylococcus aureus infected patient with skin and soft tissue infection abscesses assessed as clinical failure rate at 100 mg, po twice daily for 7 days
Type: functional, organism-based

For `C[C@H]1c2cccc(O)c2C(=O)C2=C(O)[C@]3(O)C(=O)C(C(N)=O)=C(O)[C@@H](N(C)C)[C@@H]3[C@@H](O)[C@@H]21`, the Activity was “Active”.
